Legend:
[1] = system: 80 human protein kinases (hPKs); assay: AbbVie panel of 80 human protein kinases; assay type: biochemical; details: no hPKs inhibited
C. parvum Iowa strain = assay: C. parvum infection in mice (beige/SCID mouse model); details: oral gavage 20 mg/kg 8 AM and 40 mg/kg 5 PM, days 5-14 after infection; each time point except Days 0 and 3; p ≤0.05
Solubility at pH 6.5 = assay type: physicochemical; details: in words
Prkcn = Prkcn (Homo sapiens (Human), UniProt O94806); assay: Kinase panel selectivity: Prkcn; assay type: biochemical
Sequence of Prkcn (O94806 whole entry, looked up, species assumed): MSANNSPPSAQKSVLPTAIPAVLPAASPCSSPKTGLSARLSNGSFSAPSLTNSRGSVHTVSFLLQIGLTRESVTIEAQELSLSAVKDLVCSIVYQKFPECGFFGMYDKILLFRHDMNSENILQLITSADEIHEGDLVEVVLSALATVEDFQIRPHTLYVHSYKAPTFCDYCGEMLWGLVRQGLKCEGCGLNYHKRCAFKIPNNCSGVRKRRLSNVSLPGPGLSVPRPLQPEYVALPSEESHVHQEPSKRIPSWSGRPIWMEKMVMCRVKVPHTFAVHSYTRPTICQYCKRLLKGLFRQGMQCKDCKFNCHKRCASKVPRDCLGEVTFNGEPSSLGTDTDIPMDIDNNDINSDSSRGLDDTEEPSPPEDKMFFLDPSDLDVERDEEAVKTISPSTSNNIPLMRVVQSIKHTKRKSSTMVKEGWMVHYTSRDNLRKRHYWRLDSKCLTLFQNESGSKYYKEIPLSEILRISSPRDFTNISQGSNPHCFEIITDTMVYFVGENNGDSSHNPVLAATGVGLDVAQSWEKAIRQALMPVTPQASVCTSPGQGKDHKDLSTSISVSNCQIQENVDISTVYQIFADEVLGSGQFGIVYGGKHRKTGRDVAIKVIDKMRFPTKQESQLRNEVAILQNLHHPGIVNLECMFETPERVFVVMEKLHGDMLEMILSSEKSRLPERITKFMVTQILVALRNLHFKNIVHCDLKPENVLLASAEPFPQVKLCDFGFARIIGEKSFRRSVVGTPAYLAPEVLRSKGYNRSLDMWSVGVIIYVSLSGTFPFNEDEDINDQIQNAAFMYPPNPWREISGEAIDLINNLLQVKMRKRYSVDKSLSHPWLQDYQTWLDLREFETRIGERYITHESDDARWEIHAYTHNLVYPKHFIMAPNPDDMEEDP

[2] = system: 24 off-target liabilities (e.g. ion channels, G-protein receptors); assay: 24 off-target liability screen
Stability = details: in words
Kdr = Kdr (Homo sapiens (Human), UniProt P35968); assay: Kinase panel selectivity: Kdr; assay type: biochemical
Sequence of Kdr (P35968 20-1356, species assumed): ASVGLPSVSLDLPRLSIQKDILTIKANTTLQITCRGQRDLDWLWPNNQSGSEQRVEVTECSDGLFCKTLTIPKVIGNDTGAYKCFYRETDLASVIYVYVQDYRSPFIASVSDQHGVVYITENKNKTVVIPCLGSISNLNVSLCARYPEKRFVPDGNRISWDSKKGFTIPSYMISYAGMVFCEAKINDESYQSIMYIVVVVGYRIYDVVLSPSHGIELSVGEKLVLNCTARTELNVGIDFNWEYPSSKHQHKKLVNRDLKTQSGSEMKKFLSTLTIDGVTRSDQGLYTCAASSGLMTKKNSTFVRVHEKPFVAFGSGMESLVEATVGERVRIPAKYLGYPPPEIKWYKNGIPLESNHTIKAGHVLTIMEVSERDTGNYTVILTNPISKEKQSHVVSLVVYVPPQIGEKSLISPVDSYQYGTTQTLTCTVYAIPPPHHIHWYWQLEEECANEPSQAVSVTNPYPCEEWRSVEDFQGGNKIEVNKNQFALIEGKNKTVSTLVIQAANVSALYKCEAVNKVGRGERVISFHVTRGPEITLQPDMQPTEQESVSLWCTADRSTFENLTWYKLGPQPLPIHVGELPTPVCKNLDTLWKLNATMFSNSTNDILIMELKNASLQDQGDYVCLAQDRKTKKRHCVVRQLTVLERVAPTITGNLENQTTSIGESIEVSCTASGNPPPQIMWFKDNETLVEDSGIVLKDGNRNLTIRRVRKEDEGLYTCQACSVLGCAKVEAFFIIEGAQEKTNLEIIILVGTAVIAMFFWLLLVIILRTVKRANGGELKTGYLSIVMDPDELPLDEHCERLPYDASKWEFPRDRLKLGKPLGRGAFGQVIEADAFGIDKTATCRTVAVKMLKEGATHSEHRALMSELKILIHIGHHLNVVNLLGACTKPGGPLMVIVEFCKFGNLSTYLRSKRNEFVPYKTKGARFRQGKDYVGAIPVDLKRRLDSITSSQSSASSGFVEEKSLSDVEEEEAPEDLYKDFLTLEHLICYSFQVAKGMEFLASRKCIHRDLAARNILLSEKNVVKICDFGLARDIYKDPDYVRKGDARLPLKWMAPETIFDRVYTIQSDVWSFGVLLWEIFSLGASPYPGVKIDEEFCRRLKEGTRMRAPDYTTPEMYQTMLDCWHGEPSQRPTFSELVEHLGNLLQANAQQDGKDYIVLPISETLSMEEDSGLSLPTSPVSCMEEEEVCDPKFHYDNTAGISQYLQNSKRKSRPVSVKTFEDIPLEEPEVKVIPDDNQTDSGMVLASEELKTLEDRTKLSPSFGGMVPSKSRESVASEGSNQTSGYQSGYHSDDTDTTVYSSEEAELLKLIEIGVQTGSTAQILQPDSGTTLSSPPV

Oral availability = assay type: in vivo; details: compared with compound 9 (1294)
hERG = hERG (Homo sapiens (Human), UniProt Q12809); assay: hERG inhibitory activity; assay type: binding; details: in words, as compared to compound 9 (1294)
Sequence of hERG (Q12809 whole entry): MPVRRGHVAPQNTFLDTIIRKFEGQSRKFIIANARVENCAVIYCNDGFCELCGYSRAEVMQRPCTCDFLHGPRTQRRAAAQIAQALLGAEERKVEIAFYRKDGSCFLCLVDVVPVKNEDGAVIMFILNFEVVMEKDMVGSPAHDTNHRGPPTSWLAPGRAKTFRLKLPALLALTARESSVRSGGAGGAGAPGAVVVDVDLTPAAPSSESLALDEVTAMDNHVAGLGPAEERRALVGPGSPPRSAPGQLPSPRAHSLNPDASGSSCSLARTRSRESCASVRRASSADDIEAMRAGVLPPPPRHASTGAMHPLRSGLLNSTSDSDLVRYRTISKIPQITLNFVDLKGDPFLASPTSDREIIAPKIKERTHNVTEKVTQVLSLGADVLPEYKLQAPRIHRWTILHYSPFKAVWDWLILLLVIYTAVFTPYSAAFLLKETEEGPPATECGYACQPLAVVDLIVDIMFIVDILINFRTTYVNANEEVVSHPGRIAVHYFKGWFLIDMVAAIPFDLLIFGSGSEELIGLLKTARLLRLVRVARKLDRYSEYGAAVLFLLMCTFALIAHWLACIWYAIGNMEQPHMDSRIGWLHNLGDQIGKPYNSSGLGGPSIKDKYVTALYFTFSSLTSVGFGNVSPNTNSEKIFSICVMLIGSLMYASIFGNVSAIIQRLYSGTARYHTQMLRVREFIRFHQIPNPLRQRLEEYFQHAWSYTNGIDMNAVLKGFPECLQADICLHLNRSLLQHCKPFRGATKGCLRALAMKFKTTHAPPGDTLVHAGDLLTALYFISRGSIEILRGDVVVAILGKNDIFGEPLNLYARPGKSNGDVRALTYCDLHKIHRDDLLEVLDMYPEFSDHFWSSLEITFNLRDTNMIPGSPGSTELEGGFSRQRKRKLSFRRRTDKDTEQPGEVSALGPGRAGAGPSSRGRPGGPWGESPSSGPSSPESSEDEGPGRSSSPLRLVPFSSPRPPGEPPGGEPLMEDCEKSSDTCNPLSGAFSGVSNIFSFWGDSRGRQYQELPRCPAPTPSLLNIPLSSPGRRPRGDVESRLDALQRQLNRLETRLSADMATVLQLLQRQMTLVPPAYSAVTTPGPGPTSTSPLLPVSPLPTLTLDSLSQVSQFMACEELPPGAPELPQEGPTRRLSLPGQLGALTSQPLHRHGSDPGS

CCOc1ccc2cc(-c3nn(C(C)(C)C)c(N)c3C(N)=O)cnc2c1 [Compound 39, 5-amino-1-(tert-butyl)-3-(7-ethoxyquinolin-3-yl)-1H-pyrazole-4-carboxamide]
inhibition of hPKs, level without inhibition [1]: > 3 µM | oocysts shed in stool, difference between treated and vehicle groups (C. parvum Iowa strain): the difference was significant | solubility (Solubility at pH 6.5): good solubility | Prkcn pKi (Prkcn): 6.37 | signal in 24 off-target liability screen [2]: no signal was detected | stability (Stability): good stability | Kdr pKi (Kdr): 6.24 | oral availability (Oral availability): higher oral availability | hERG inhibitory activity (hERG): no hERG inhibitory activity
